Measurements from ChEMBL document CHEMBL1255397, “Attenuation of cerebrospinal fluid inflammation by the nonbacteriolytic antibiotic daptomycin versus that by ceftriaxone in experimental pneumococcal meningitis” (Antimicrob Agents Chemother, 2010).

Experiments:
Rattus norvegicus [1] = experiment: Toxicity in Streptococcus pneumoniae serotype 3 clinical isolate infected in Wistar rat assessed as increase in CSF IL-18 concentration at 50 mg/kg, sc administered 18 hrs post infection measured after 2 to 6 hrs by microsphere-based multiplex assay; type: organism-based; design: dose 50 mg/kg, route subcutaneous; conditions: in vivo
Rattus norvegicus [2] = experiment: Decrease in severity of cortical damage in Streptococcus pneumoniae serotype 3 clinical isolate infected in Wistar rat at 100 mg/kg, sc administered 18 hrs post infection measured after 2 to 6 hrs; type: functional; conditions: route subcutaneous
Rattus norvegicus [3] = experiment: Toxicity in Streptococcus pneumoniae serotype 3 clinical isolate infected in Wistar rat assessed as decrease in CSF IL1-beta concentration at 50 mg/kg, sc administered 18 hrs post infection measured after 2 to 6 hrs by microsphere-based multiplex assay; type: organism-based; design: dose 50 mg/kg, route subcutaneous; conditions: in vivo
Rattus norvegicus [4] = experiment: Toxicity in Streptococcus pneumoniae serotype 3 clinical isolate infected in Wistar rat assessed as increase in CSF MIP-1alpha concentration at 100 mg/kg, sc administered 18 hrs post infection measured after 2 to 6 hrs by microsphere-based multiplex assay; type: organism-based; design: dose 100 mg/kg, route subcutaneous; conditions: in vivo
Rattus norvegicus [5] = experiment: Toxicity in Streptococcus pneumoniae serotype 3 clinical isolate infected in Wistar rat assessed as decrease in CSF MCP-1 concentration at 50 mg/kg, sc administered 18 hrs post infection measured after 2 to 6 hrs by microsphere-based multiplex assay; type: organism-based; design: dose 50 mg/kg, route subcutaneous; conditions: in vivo
Rattus norvegicus [6] = experiment: Toxicity in Streptococcus pneumoniae serotype 3 clinical isolate infected in Wistar rat assessed as decrease in CSF IL-10 concentration at 100 mg/kg, sc administered 18 hrs post infection measured after 2 to 6 hrs by microsphere-based multiplex assay; type: organism-based; design: dose 100 mg/kg, route subcutaneous; conditions: in vivo
Rattus norvegicus [7] = experiment: Toxicity in Streptococcus pneumoniae serotype 3 clinical isolate infected in Wistar rat assessed as decrease in CSF IL1-beta concentration at 100 mg/kg, sc administered 18 hrs post infection measured after 2 to 6 hrs by microsphere-based multiplex assay; type: organism-based; design: dose 100 mg/kg, route subcutaneous; conditions: in vivo
Rattus norvegicus [8] = experiment: Toxicity in against Streptococcus pneumoniae serotype 3 clinical isolate infected in Wistar rat assessed as decrease in CSF IL-18 concentration at 50 mg/kg, sc administered 18 hrs post infection measured after 2 to 6 hrs by microsphere-based multiplex assay; type: organism-based; design: dose 50 mg/kg, route subcutaneous; conditions: in vivo
Rattus norvegicus [9] = experiment: Toxicity in Streptococcus pneumoniae serotype 3 clinical isolate infected in Wistar rat assessed as decrease in CSF IL-10 concentration at 50 mg/kg, sc administered 18 hrs post infection measured after 2 to 6 hrs by microsphere-based multiplex assay; type: organism-based; design: dose 50 mg/kg, route subcutaneous; conditions: in vivo
Rattus norvegicus [10] = experiment: Toxicity in Streptococcus pneumoniae serotype 3 clinical isolate infected in Wistar rat assessed as increase in CSF MCP-1 concentration at 100 mg/kg, sc administered 18 hrs post infection measured after 2 to 6 hrs by microsphere-based multiplex assay; type: organism-based; design: dose 100 mg/kg, route subcutaneous; conditions: in vivo
Rattus norvegicus [11] = experiment: Toxicity in Streptococcus pneumoniae serotype 3 clinical isolate infected in Wistar rat assessed as decrease in CSF MIP-1alpha concentration at 50 mg/kg, sc administered 18 hrs post infection measured after 2 to 6 hrs by microsphere-based multiplex assay; type: organism-based; design: dose 50 mg/kg, route subcutaneous; conditions: in vivo
Rattus norvegicus [12] = experiment: Decrease in severity of cortical damage in Streptococcus pneumoniae serotype 3 clinical isolate infected in Wistar rat at 50 mg/kg, sc administered 18 hrs post infection measured after 2 to 6 hrs; type: functional; conditions: route subcutaneous
Rattus norvegicus [13] = experiment: Toxicity in Streptococcus pneumoniae serotype 3 clinical isolate infected in Wistar rat assessed as decrease in CSF TNF-alpha concentration at 50 mg/kg, sc administered 18 hrs post infection measured after 2 to 6 hrs by microsphere-based multiplex assay; type: organism-based; design: dose 50 mg/kg, route subcutaneous; conditions: in vivo
Rattus norvegicus [14] = experiment: Toxicity in Streptococcus pneumoniae serotype 3 clinical isolate infected in Wistar rat assessed as decrease in CSF CXCL1 concentration at 50 mg/kg, sc administered 18 hrs post infection measured after 2 to 6 hrs by microsphere-based multiplex assay; type: organism-based; design: dose 50 mg/kg, route subcutaneous; conditions: in vivo
Rattus norvegicus [15] = experiment: Toxicity in against Streptococcus pneumoniae serotype 3 clinical isolate infected in Wistar rat assessed as increase in CSF IL-18 concentration at 100 mg/kg, sc administered 18 hrs post infection measured after 2 to 6 hrs by microsphere-based multiplex assay; type: organism-based; design: dose 100 mg/kg, route subcutaneous; conditions: in vivo
Rattus norvegicus [16] = experiment: Toxicity in Streptococcus pneumoniae serotype 3 clinical isolate infected in Wistar rat assessed as decrease in CSF IL-6 concentration at 50 mg/kg, sc administered 18 hrs post infection measured after 2 to 6 hrs by microsphere-based multiplex assay; type: organism-based; design: dose 50 mg/kg, route subcutaneous; conditions: in vivo
Streptococcus pneumoniae = experiment: Antimicrobial activity against Streptococcus pneumoniae serotype 3 clinical isolate infected in Wistar rat assessed as cerebrospinal fluid bacterial titer at 50 mg/kg, sc administered 18 hrs post infection measured after 4 hrs; type: functional; conditions: route subcutaneous

Row | Structure (SMILES) | Activity (Rattus norvegicus [1]) | inhibition in vivo at 100 mg/kg (Rattus norvegicus [2]) | Activity (Rattus norvegicus [3]) | Activity (Rattus norvegicus [4]) | Activity (Rattus norvegicus [5]) | Activity (Rattus norvegicus [6]) | Activity (Rattus norvegicus [7]) | Activity (Rattus norvegicus [8]) | Activity (Rattus norvegicus [9]) | Activity (Rattus norvegicus [10]) | Activity (Rattus norvegicus [11]) | inhibition in vivo at 50 mg/kg (Rattus norvegicus [12]) | Activity (Rattus norvegicus [13]) | Activity (Rattus norvegicus [14]) | Activity (Rattus norvegicus [15]) | Activity (Rattus norvegicus [16]) | log10CFU/ml (Streptococcus pneumoniae)
1 | CO/N=C(\C(=O)N[C@@H]1C(=O)N2C(C(=O)O)=C(CSc3nc(=O)c(=O)[nH]n3C)CS[C@H]12)c1csc(N)n1 [CEFTRIAXONE] | Toxic | 4.7% | Non-toxic | Toxic | Non-toxic | Toxic | Toxic | Non-toxic | Non-toxic | Toxic | Non-toxic |  |  |  |  |  | 
2 | CCCCCCCCCC(=O)N[C@@H](Cc1c[nH]c2ccccc12)C(=O)N[C@H](CC(N)=O)C(=O)N[C@@H](CC(=O)O)C(=O)N[C@@H]1C(=O)NCC(=O)N[C@@H](CCCN)C(=O)N[C@@H](CC(=O)O)C(=O)N[C@H](C)C(=O)N[C@@H](CC(=O)O)C(=O)NCC(=O)N[C@H](CO)C(=O)N[C@@H]([C@H](C)CC(=O)O)C(=O)N[C@@H](CC(=O)c2ccccc2N)C(=O)O[C@@H]1C |  |  |  |  |  |  |  |  |  |  |  | 0.13% | Non-toxic | Non-toxic | Toxic | Non-toxic | < 1000 CFU/ml
